Patent publication US20110166191A1, “3-(2-amino-ethyl)-5-(3-cyclohexyl-propylidene)-thiazolidine-2,4-dione and its derivatives as multiple signaling pathway inhibitors and for the treatment of cancer” (priority 2010, published 2011)

What was measured:
[1] = system: p-MEK; assay: Western blot analysis of p-MEK in U937 cells; format: cell-based; details: PMA/TPA 200 nM stimulation
Protocol: FIG. 1. U937 cells were treated with Formula II prepared as described in Example 4 [i.e. 3-(2-aminoethyl)-5-(3-cyclohexylpropylidene)thiazolidine-2,4-dione] for 1 h, then stimulated with PMA (200 nM) for 30 min. Lysates were analyzed for p-Akt, p-MEK, p-ERK and α-tubulin by western blot analysis.
Cells (5×10^5 per ml) were treated with various concentrations of test compound at 37° C. (5% CO2) for 3 hrs, then stimulated with TPA at a final concentration of 200 nM for 20 min. Samples from whole-cell pellets were prepared and 30 μg protein for each condition was subjected to SDS-PAGE, transferred onto a PVDF membrane, and blocked with 5% fat-free milk for 30 min. The membrane is probed with primary antibodies overnight at 4° C. followed by incubation with horseradish peroxidase-labeled anti-mouse IgG (1:5000, BD Biosciecne). The immunoreactive bands are detected by chemiluminescence methods (Pierce) and visualized on Kodak Omat film. The following primary antibodies were used: phospho-p44/42 MAPK (ERK1/2, Thr202/Tyr204), p44/42 MAPK, phospho-p90RSK (Thr359/Ser363), RSK1/RSK2/RSK3 (Cell Signaling). Blots were reprobed with antibodies against α-tubulin to ensure equal loading and transfer of proteins.

[2] = Toxicity studies in mice; format: in vivo; details: B6C3F1 mice, 20 mg/kg orally, 21 days
Protocol: Female B6C3F1 mice (12/group) were given example 4 orally at 30 mg/kg, 50 mg/kg and 80 mg/kg dosage or example 820 mg/kg orally for 21 days.

[3] = system: DU145; assay: Cell viability assay; format: cell-based; details: Homo sapiens, DU-145, DU145 cells, 24 hrs, read-out: Inhibition of cancer cell proliferation IC50
Protocol: (§1) Cells were cultured at a density of 5×10^4 (U937) or 1×10^4 (PC-3, DU145, M12, HT29) cells per well in flat bottomed 96-well plates and treated with various concentrations of test compound at 37° C. (5% CO2). After 24 h, 20 μL of CellTiter 96® Aqueous One Solution Reagent (Promega, Madison, Wis.) was added to each well according to the manufacturer's instructions. After 1 hour, the cell viability was determined by measuring the absorbance at 490 nm using a micro-plate reader.

[4] = system: M12; assay: Cell viability assay; format: cell-based; details: M12 cells, 24 hrs, read-out: Inhibition of cancer cell proliferation IC50
Protocol: as §1

[5] = system: U937; assay: Cell viability assay; format: cell-based; details: Homo sapiens, U-937, U937 cells, 24 hrs, read-out: Inhibition of cancer cell proliferation IC50
Protocol: as §1

[6] = system: PC-3; assay: Cell viability assay; format: cell-based; details: Homo sapiens, PC-3 cells, 24 hrs, read-out: Inhibition of cancer cell proliferation IC50
Protocol: as §1

| Structure (SMILES) | p-MEK level (western blot) [1] | effects on general health and body weight [2] | IC50 [3] | IC50 [4] | IC50 [5] | IC50 [6] |
| --- | --- | --- | --- | --- | --- | --- |
| O=C(NOCC1CC1)c1ccc(F)c(F)c1Nc1ccc(I)cc1Cl [PD184352, reference compound] | dose-dependent increase in the p-MEK levels | – | – | – | – | – |
| NCCN1C(=O)S/C(=C\CCc2ccccc2)C1=O [Example 8, 3-(2-aminoethyl)-5-(3-phenylpropylidene)thiazolidine-2,4-dione] | – | no effects on general health and body weight were observed | 30.8 µM | 14.8 µM | 12.2 µM | 14.6 µM |
